Measured values from patent US20230181628A1 (priority 2020, published 2023).
Read-outs that look alike come from different tables or passages of the source.

How the values were obtained:
[1] = Lewis acidity measuring method (1): reaction rate constant of reaction between CoTPP and oxygen in the presence of a Lewis acid; format: physicochemical
UM-UC-3 cells [2] = tested on: UM-UC-3 cells
[3] = tested on: various bladder cancer cells (UM-UC-3, UM-UC-2, EJ-1, BOY-12E, 5637); conditions: 120 minutes incubation
UM-UC-3 cells [4] = conditions: 500 ppm NaClO2 for 120 minutes
UM-UC-3 cells [5] = conditions: 500 ppm NaClO2 for 120 minutes, then 24 hours culture; PBS Control 14.6%
UM-UC-3 cells [6] = conditions: 500 ppm NaClO2 for 120 minutes, then 24 hours culture; vs PBS group
[7] = tested on: bladder cancer clinical specimen-derived tumor
UM-UC-3 cells [8] = tested on: UM-UC-3 cells; remark: listed apart in the source
[9] = tested on: tongue cancer cells HSC-3; conditions: 60 minutes incubation, 48 hours culture
[10] = tested on: oral cancer cells HO-1-u-1; conditions: 60 minutes incubation, 48 hours culture
colon cancer cells HT29 = conditions: 60 minutes incubation, 48 hours culture
colon cancer cells HT116 = conditions: 60 minutes incubation, 48 hours culture
[11] = tested on: pancreatic cancer cells PK05; conditions: 48 hours
[12] = tested on: pancreatic cancer cells PK10; conditions: 48 hours
[13] = concentration of 31 ppm or more

## CCCC[N+](CCCC)(CCCC)CCCC.F[P-](F)(F)(F)(F)F [tetrabutylammonium hexafluorophosphate]
[1]
  kcat (reaction rate constant of reaction between CoTPP and oxygen in the presence of a Lewis acid): >0.1 M^−2 s^−1

## sodium chlorite [NaClO2]
UM-UC-3 cells [2]; 500 ppm NaClO2, 30, 60, 90, 120 minutes
  cell proliferation vs contact time: inhibited in a time-dependent manner
UM-UC-3 cells [2]; 500 ppm NaClO2, 120 minutes incubation, then 48 hours culture
  inhibition of cell proliferation: more than 60%
[3]; then 48 hours culture
  proliferation inhibition vs concentration: concentration-dependent proliferation inhibition
[3]; at 500 ppm or more
  bladder cancer proliferation: almost completely inhibited
UM-UC-3 cells [4]; 0 hours after removal
  cell morphology: morphological changes
UM-UC-3 cells [4]; 24 hours after removal
  cell morphology: regression of cells
UM-UC-3 cells [4]; 24 hours after removal, magnified photomicrograph
  vesicle considered to be an apoptotic vesicle: formation of a vesicle
UM-UC-3 cells [5]
  apoptotic rate of UM-UC-3 cells: 43.8%
UM-UC-3 cells [6]
  fraction ratio in subG1 phase: significantly increased
[7]; tumor immersed in 500 ppm NaClO2, excised on day 27
  excised tumor photograph and tumor weight: increase in bladder tumors was inhibited
[7]; tumor immersed in 500 ppm NaClO2 for 120 minutes before transplantation, measured from day 12
  proliferation of bladder cancer tumors (tumor volume): significantly inhibited
UM-UC-3 cells [8]; 100 ppm NaClO2 (A100) vs 100 ppm NaClO2 + 100 ppm benzethonium chloride
  reactive oxygen species detected, compared with MA-T: equivalent to or more than that with MA-T
UM-UC-3 cells [8]; 500 ppm NaClO2 alone
  reactive oxygen production (fluorescence plate reader): remarkable reactive oxygen production
UM-UC-3 cells [8]; 500 ppm NaClO2 alone, final concentration
  fluorescence of active oxygen in cells (fluorescence microscopy): remarkable active oxygen production
UM-UC-3 cells [8]; over time
  production of reactive oxygen species on contact with cells (fluorescence intensity): produced reactive acid species in a time-dependent manner
[9]
  viability / proliferation of cancer cells: effect of inhibiting proliferation of cancer cells
[10]
  viability / proliferation of cancer cells: effect of inhibiting proliferation of cancer cells
Colon cancer cells HT29
  viability / proliferation of cancer cells: effect of inhibiting proliferation of cancer cells
Colon cancer cells HT116
  viability / proliferation of cancer cells: effect of inhibiting proliferation of cancer cells
[11]; 0-500 ppm
  proliferation inhibitory effect vs concentration (viability): concentration-dependent proliferation inhibitory effect
[11]; [13]
  pancreatic cancer cell proliferation: almost completely inhibited
[12]; 0-500 ppm
  proliferation inhibitory effect vs concentration (viability): concentration-dependent proliferation inhibitory effect
[12]; [13]
  pancreatic cancer cell proliferation: almost completely inhibited

## benzalkonium chloride
[1]; acetonitrile, saturated O2, room temperature
  kcat (reaction rate constant of reaction between CoTPP and oxygen in the presence of a Lewis acid): 0.18 M^−2 s^−1
